Like-named read-outs stand apart in the source and are kept apart here.
Tests used:
hGPR55 [1] = biological target: T1, hGPR55 (Homo sapiens, UniProt Q9Y2T6); assay: [3H]CP55,940 radioligand displacement assay on hGPR55 CHO cell membranes; format: binding
T1 construct: host or cells: CHO-K1
Experimental: (§1) Assays were performed as described previously and summarized here. […] Binding was initiated by the addition of transfected hGPR55, hCB1R or hCB2R CHO cell membranes (25 μg protein per well). All assays were performed at 37°C for 120 min prior to quenching with ice-cold Tris binding buffer followed by vacuum filtration using a 24-well sampling manifold (Brandel Cell Harvester; Brandel, Inc., Gaithersburg, MD, USA) and Brandel GF/B filters. Each reaction well was washed six times with 1.2 mL aliquots of Tris-binding buffer. The filters were air-dried overnight and then placed in 5 mL of scintillation fluid (Ultima Gold XR, Perkin Elmer, Inc., Waltham, MA, USA). Liquid scintillation spectrometry was used for quantifying radioactivity.
(§2) Data for p-ERK in-cell westerns are shown as fold over vehicle response (i.e., 1). Estimates of Ki, EC50 and Emax were determined using non-linear regression (3 parameters) (GraphPad, Prism, v. 9.0). p < 0.05 was determined to be significant.

human CB1R = biological target: T2, human CB1R (Homo sapiens, UniProt P21554); assay: [3H]CP55,940 radioligand displacement assay on hCB1R CHO cell membranes; format: binding
T2 construct: HitHunter) 95-0071C2; host or cells: CHO-K1
Experimental: as §1, §2

human CB2R = biological target: T3, human CB2R (Homo sapiens, UniProt P34972); assay: [3H]CP55,940 radioligand displacement assay on hCB2R CHO cell membranes; format: binding
T3 construct: host or cells: CHO-K1
Experimental: as §1, §2

hGPR55 [2] = biological target: T1, hGPR55; assay: p-ERK1/2 activation, in-cell Western, CHO cells expressing hGPR55; format: cell-based; settings: for Emax, p-ERK1/2 activation: fold over vehicle, CHO cells expressing hGPR55, 30 min, mean ± SEM
Experimental: Downstream signaling by hGPR55 was investigated by quantifying p-ERK activation in the in-cell Western assay.
Cells were seeded at approximately 2000 cells/well in 96-well plates and treated with 0.1–10 μM compounds for 30 min and were then fixed for 10 min at room temperature with 4% paraformaldehyde. Cells were washed 3 times with 100 μL 1X PBS for 5 min each. Cells were incubated with blocking solution (PBS, 20% Odyssey blocking buffer, and 0.1% TritonX-100) for 1 h at room temperature. Next, cells were exposed to primary antibodies for p-ERK1/2(T202/Y204) (mouse monoclonal IgG, Cat# sc-136521) or ERK1/2 (rabbit polyclonal IgG, Cat# sc-292838) (Santa Cruz Biotechnology, Santa Cruz, CA) diluted (1:200) in blocking solution overnight at 4 °C. Cells were washed 3 times with 100 μL PBS for 5 min each. Cells were exposed to the secondary antibodies goat polyclonal anti-rabbit IgG IR^Dye800-conjugated antibody diluted 1:500 (Li-Cor Biosciences, IgG, Cat# P/S 926-32210, RRID AB-2687825, lot# C50113-18) and goat polyclonal anti-mouse IgG IR^Dye680-conjugated antibody diluted 1:500 (Li-Cor Biosciences, IgG, Cat# P/N 925-68070, RRID AB-2651128, lot# C50113-17) for 1 h at room temperature. Cells were washed 3 times with 100 μL PBS for 5 min each. Analyses were conducted using the Odyssey Imaging system and software (version 3.0; Li-Cor).
as §2

[3] = CHO cells expressing hGPR55, 30 min treatment, mean (95% CI), n = 6, read-out: EC50 95% CI, p-ERK1/2 activation

T2 sequence (P21554 whole entry): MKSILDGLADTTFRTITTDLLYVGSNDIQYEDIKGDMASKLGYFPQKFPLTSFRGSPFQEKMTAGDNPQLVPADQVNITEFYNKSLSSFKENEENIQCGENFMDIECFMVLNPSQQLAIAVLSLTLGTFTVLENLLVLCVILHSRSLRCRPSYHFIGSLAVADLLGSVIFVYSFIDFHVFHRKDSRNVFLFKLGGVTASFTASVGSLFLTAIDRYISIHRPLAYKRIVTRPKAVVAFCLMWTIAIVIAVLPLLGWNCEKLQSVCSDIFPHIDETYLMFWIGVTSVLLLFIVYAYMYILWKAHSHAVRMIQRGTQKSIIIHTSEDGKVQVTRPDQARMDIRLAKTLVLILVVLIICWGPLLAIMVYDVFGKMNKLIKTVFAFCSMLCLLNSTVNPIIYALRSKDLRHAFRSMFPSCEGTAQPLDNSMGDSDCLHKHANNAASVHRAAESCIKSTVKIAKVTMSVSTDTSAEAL
T1 sequence (Q9Y2T6 whole entry): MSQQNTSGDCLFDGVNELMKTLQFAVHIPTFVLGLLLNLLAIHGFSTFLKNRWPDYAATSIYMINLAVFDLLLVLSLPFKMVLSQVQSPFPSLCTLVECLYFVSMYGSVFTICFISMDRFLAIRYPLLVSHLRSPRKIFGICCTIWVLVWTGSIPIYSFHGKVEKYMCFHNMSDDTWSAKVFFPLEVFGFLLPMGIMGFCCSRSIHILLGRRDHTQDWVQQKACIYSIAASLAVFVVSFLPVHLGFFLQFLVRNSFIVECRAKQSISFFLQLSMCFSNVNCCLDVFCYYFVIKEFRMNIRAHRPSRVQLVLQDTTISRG
T3 sequence (P34972 whole entry): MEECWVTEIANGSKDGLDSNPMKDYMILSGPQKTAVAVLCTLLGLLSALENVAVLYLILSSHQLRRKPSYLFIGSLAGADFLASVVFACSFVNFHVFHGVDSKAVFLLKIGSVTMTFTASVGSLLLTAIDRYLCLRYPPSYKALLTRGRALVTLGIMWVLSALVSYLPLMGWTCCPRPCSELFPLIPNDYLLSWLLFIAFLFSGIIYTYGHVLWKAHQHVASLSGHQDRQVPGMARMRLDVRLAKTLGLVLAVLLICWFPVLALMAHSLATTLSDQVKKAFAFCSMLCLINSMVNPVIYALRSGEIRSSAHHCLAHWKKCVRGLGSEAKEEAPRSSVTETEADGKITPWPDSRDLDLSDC

Row | Structure (SMILES) | Ki (hGPR55 [1]; read-out: Ki hGPR55) [nM] | Ki (human CB1R) [nM] | Ki (human CB2R) [nM] | EC50 (hGPR55 [2]; [3]) [nM] | Emax, p-ERK1/2 activation (hGPR55 [2]; n = 6) [Fold] | melting point [°C] | Ki (hGPR55 [1]) [nM] | EC50 (hGPR55 [2]) [nM]
1 | CCCCc1cc(OC)c2cc(Cc3ccccc3OC)c(=O)n(C)c2c1 [Compound 2, 7-n-Butyl-5-methoxy-3-(2-methoxybenzyl)-1-methylquinolin-2(1H)-one] | 1.2 | > 10000 | 6.9 | 1.1 | 1.4 ± 0.07 | 78 to 80 |  | 
2 | CCCCc1cc(O)c2cc(Cc3ccccc3O)c(=O)[nH]c2c1 [Compound 3, 7-n-Butyl-5-hydroxy-3-(2-hydroxybenzyl)quinolin-2(1H)-one] | 6.2 | 5.1 | > 10000 | 1.4 | 1.2 ± 0.04 | 252 to 254 |  | 
3 | CCCCc1cc(OC)c2cc(Cc3ccccc3OC)c(=O)[nH]c2c1 [Compound 1, 7-n-Butyl-5-methoxy-3-(2-methoxybenzyl)quinolin-2(1H)-one] | 14 | > 10000 | > 10000 | 6.4 | 1.5 ± 0.06 | 208 to 210 |  | 
4 | CCCCCCC(C)(C)c1ccc([C@@H]2C[C@H](O)CC[C@H]2CCCO)c(O)c1 [CP55,940, reference compound] |  |  |  |  |  |  | 13 | 4.2
5 | CCCCc1cc(O)c2cc(Cc3ccccc3O)c(=O)n(C)c2c1 [Compound 4, 7-n-Butyl-5-hydroxy-3-(2-hydroxybenzyl)-1-methylquinolin-2(1H)-one] | 7.1 | 29 | 7.9 | 11 | 1.3 ± 0.03 | 223 to 225 |  | 
6 | C=C(C)[C@@H]1CCC(C)=C[C@H]1c1c(C)cc(O)cc1O [Compound O-1602, O-1602, reference compound] | 10 |  |  | 61 | 1.3 ± 0.03 |  |  | 
